{"source": "patent US11266755B2", "about": "“Development and application of tumor diagnostic radioactive probe targeting folic acid receptor” (Kyungpook National University Industry-Academic Cooperation …, priority 2017, dated 2022)", "tested_on": "MDA-MB-231/Luc+", "experiment": "PET imaging in breast cancer bone metastasis model", "format": "in vivo", "conditions": "PET 1 hour after injection into the tail vein, same mouse, FIG. 13B", "description": "For the breast cancer metastasis model, MDA-MB-231/Luc+ was used, and after 10 days of direct injection of 1×10^5 cells into the left ventricle, IVIS-assisted luminescence images confirmed that bone metastasis occurred to the femoral bones. After verifying the establishment of bone metastasis model of breast cancer, further experiments were carried out (FIG. 12A)."}
{"smiles": "OC[C@H]1O[C@@H](O)[C@H]([18F])[C@@H](O)[C@@H]1O", "note": "[FDG]", "values": [{"measurement": "PET detection of breast cancer bone metastasis", "value": "difficult to identify the tumor site clearly due to high background uptake"}]}
